Measured values: PMC4706618, “Comparison of bactericidal and cytotoxic activities of trichogin analogs” (Data in Brief, 2015)
Converted amounts (≈) assume the structure as drawn. Like-named read-outs stand apart in the source and are kept apart here. Non-standard residues stand in square brackets, D forms with d. Residues, ends and D or L forms follow the SMILES beside them. *: point of attachment. Leu(ol) = CC(C)C[C@H](N)CO; Octanoyl = CCCCCCCC(=O)*; Aib = CC(C)(N)C(=O)O

Legend:
[1] = test system: S. aureus, ATCC BAA-44 (methicillin-resistant strain); assay type: cell-based, Staphylococcus aureus
Protocol: (§1) E. coli ATCC 25922, the methicillin-resistant strain of S. aureus, ATCC BAA-44, P. aeruginosa ATCC 25668 and S. epidermidis ATCC 700565 was a kind gift of Prof. Elena Reddi (Dept. of Biology, University of Padova, Italy). Cultures were maintained in Luria Bertani (LB) agar. MICs (Minimal inhibitory concentrations) of the peptides were determined using the broth microdilution method. Two-fold serial dilutions of each peptide, from 1 to 64 μM, were prepared in LB and 50 μl per well were arranged in sterile 96-well plates (Falcon). Then, an aliquot of bacterial cell suspension was added to each well, at a final concentration of 5×10^5 CFU/ml.

[2] = test system: S. epidermidis ATCC 700565; assay type: cell-based, Staphylococcus epidermidis
Protocol: as §1

E. coli ATCC 25922 = assay type: cell-based, Escherichia coli; details: ATCC 25922, 24 h
Protocol: as §1

P. aeruginosa ATCC 25668 = assay type: cell-based, Pseudomonas aeruginosa; details: ATCC 25668, 24 h
Protocol: as §1

[3] = after 24 h at 37 °C, broth microdilution in LB, 5×10^5 CFU/ml, ±SE, N≥4, peptide dose range 0–64 µM

SMILES	MIC S. aureus ([1]; ATCC BAA-44, 24 h)	MIC S. epidermis ([2]; ATCC 700565, 24 h)	MIC E. coli (E. coli ATCC 25922)	MIC P. aeruginosa (P. aeruginosa ATCC 25668)	MIC S. aureus [1, 3]	MIC S. epidermis [2, 3]
CCCCCCCC(=O)NC(C)(C)C(=O)N[C@@H](CCCCN)C(=O)N[C@@H](CC(C)C)C(=O)NC(C)(C)C(=O)N[C@@H](CCCCN)C(=O)NCC(=O)N[C@@H](CC(C)C)C(=O)NC(C)(C)C(=O)N[C@@H](CCCCN)C(=O)N[C@H](C(=O)N[C@H](CO)CC(C)C)[C@@H](C)CC [K2K5K9] (Octanoyl-[Aib]KL[Aib]KGL[Aib]KI[Leu(ol)])	4.3 ± 1.8 µM (≈ 5.5 µg/mL)	4 ± 0.9 µM (≈ 5.12 µg/mL)	14.9 ± 8.6 µM (≈ 19.1 µg/mL)	13.3 ± 4.1 µM (≈ 17 µg/mL)		
CCCCCCCC(=O)NC(C)(C)C(=O)N[C@@H](CCCCN)C(=O)N[C@@H](CC(C)C)C(=O)NC(C)(C)C(=O)N[C@@H](CCCCN)C(=O)NCC(=O)N[C@@H](CC(C)C)C(=O)NC(C)(C)C(=O)NCC(=O)N[C@H](C(=O)N[C@H](CO)CC(C)C)[C@@H](C)CC [K2K5] (Octanoyl-[Aib]KL[Aib]KGL[Aib]GI[Leu(ol)])	3.3 ± 1.3 µM (≈ 3.99 µg/mL)	5 ± 2.4 µM (≈ 6.04 µg/mL)	13.7 ± 3.9 µM (≈ 16.6 µg/mL)	16 ± 5 µM (≈ 19.3 µg/mL)		
CCCCCCCC(=O)NC(C)(C)C(=O)N[C@@H](CCCCN)C(=O)N[C@@H](CC(C)C)C(=O)NC(C)(C)C(=O)NCC(=O)N[C@@H](CCCCN)C(=O)N[C@@H](CC(C)C)C(=O)NC(C)(C)C(=O)NCC(=O)N[C@H](C(=O)N[C@H](CO)CC(C)C)[C@@H](C)CC [K2K6] (Octanoyl-[Aib]KL[Aib]GKL[Aib]GI[Leu(ol)])	2.8 ± 1.1 µM (≈ 3.38 µg/mL)	3.2 ± 2.6 µM (≈ 3.87 µg/mL)	12.6 ± 4.3 µM (≈ 15.2 µg/mL)	17.6 ± 8.8 µM (≈ 21.3 µg/mL)		
CCCCCCCC(=O)NC(C)(C)C(=O)NCC(=O)N[C@@H](CC(C)C)C(=O)NC(C)(C)C(=O)N[C@@H](CCCCN)C(=O)NCC(=O)N[C@@H](CC(C)C)C(=O)NC(C)(C)C(=O)NCC(=O)N[C@H](C(=O)N[C@H](CO)CC(C)C)[C@@H](C)CC [K5] (Octanoyl-[Aib]GL[Aib]KGL[Aib]GI[Leu(ol)])			8 ± 2 µM (≈ 9.1 µg/mL)	>64 µM	1 ± 0 µM (≈ 1.14 µg/mL)	2 ± 0 µM (≈ 2.28 µg/mL)
CCCCCCCC(=O)N[C@@H](CC(C)C)C(=O)NCC(=O)N[C@@H](CC(C)C)C(=O)NC(C)(C)C(=O)NCC(=O)NCC(=O)N[C@@H](CC(C)C)C(=O)N[C@@H](CC(C)C)C(=O)NCC(=O)N[C@H](C(=O)N[C@H](CO)CC(C)C)[C@@H](C)CC [L1L8] (Octanoyl-LGL[Aib]GGLLGI[Leu(ol)])	32 ± 0 µM (≈ 35.9 µg/mL)	>64 µM	>64 µM	>64 µM		
